ChEMBL document CHEMBL3734752, “Acylhydrazone derivatives as potential anticancer agents: Synthesis, bio-evaluation and mechanism of action” (Bioorg Med Chem Lett, 2015)
≈ marks a conversion by molar mass, not a printed value. Calls of active or inactive are those of the source. The calls are words filed in the database; no cut-off is given here.

What was measured:
[1] = test system: HepG2; test: Cytotoxicity against human HepG2 cells assessed as inhibition of cell proliferation after 72 hrs by MTT assay; assay type: functional, cell-based; conditions: for IC50: HepG2, 72 h
[2] = (§1) Cytotoxicity against human BCG823 cells assessed as inhibition of cell proliferation after 72 hrs by MTT assay; assay type: functional, cell-based; conditions: BCG823, 72 h
[3] = (§2) Cytotoxicity against human HuH7 cells assessed as inhibition of cell proliferation after 72 hrs by MTT assay; assay type: functional, cell-based; conditions: Huh-7, 72 h
[4] = test system: HepG2; test: Cytotoxicity against human HepG2 cells assessed as inhibition of cell proliferation at 40 ug/ml after 72 hrs by MTT assay; assay type: functional, cell-based
[5] = test system: BCG823; test: Cytotoxicity against human BCG823 cells assessed as inhibition of cell proliferation at 40 ug/ml after 72 hrs by MTT assay; assay type: functional, cell-based
[6] = test system: Huh-7; test: (§3) Cytotoxicity against human HuH7 cells assessed as inhibition of cell proliferation at 40 ug/ml after 72 hrs by MTT assay; assay type: functional
[7] = test system: HepG2; test: Induction of apoptosis in human HepG2 cells assessed as early apoptotic cells at IC50 concentration after 24 hrs by Annexin V-FITC/propidium iodide staining-based flow cytometry (reference value: 1.2 %); assay type: functional
[8] = test system: BCG823; test: as §1; assay type: functional, cell-based
[9] = test system: HepG2; test: Induction of apoptosis in human HepG2 cells assessed as viable cells at IC50 concentration after 24 hrs by Annexin V-FITC/propidium iodide staining-based flow cytometry (reference value: 97 %); assay type: functional
[10] = test system: HepG2; test: Induction of apoptosis in human HepG2 cells assessed as late apoptotic cells at IC50 concentration after 24 hrs by Annexin V-FITC/propidium iodide staining-based flow cytometry (reference value: 0.2 %); assay type: functional
[11] = test system: HepG2; test: Induction of apoptosis in human HepG2 cells assessed as necrotic cells at IC50 concentration after 24 hrs by Annexin V-FITC/propidium iodide staining-based flow cytometry (reference value: 1.6 %); assay type: functional
[12] = test system: HepG2; test: Induction of apoptosis in human HepG2 cells assessed as viable cells at 2 times IC50 after 24 hrs by Annexin V-FITC/propidium iodide staining-based flow cytometry (reference value: 97 %); assay type: functional
[13] = test system: HepG2; test: Induction of apoptosis in human HepG2 cells assessed as early apoptotic cells at 2 times IC50 after 24 hrs by Annexin V-FITC/propidium iodide staining-based flow cytometry (reference value: 1.2 %); assay type: functional
[14] = test system: HepG2; test: Induction of apoptosis in human HepG2 cells assessed as late apoptotic cells at 2 times IC50 after 24 hrs by Annexin V-FITC/propidium iodide staining-based flow cytometry (reference value: 0.2 %); assay type: functional
[15] = test system: HepG2; test: Induction of apoptosis in human HepG2 cells assessed as necrotic cells at 2 times IC50 after 24 hrs by Annexin V-FITC/propidium iodide staining-based flow cytometry (reference value: 1.6 %); assay type: functional
[16] = as §3; assay type: functional; conditions: Huh-7, 72 h
[17] = test system: Huh-7; test: as §2; assay type: functional, cell-based

Row | Structure (SMILES) | IC50 [1] [µg/mL] | IC50 [2] [µg/mL] | IC50 [3] [µg/mL] | further results
1 | C/C(=N\NC(=O)c1ccc(CSc2nc3ccccc3s2)cc1)c1ccc([N+](=O)[O-])cc1 | 35.7 (≈ 77.2 µM) | 31.3 (≈ 67.7 µM) | 4.46 (≈ 9.64 µM) | 
2 | COc1cc(/C=N/NC(=O)c2ccc(CSc3nc(C)cc(C)n3)cc2)cc(OC)c1OC | 33.3 (≈ 71.3 µM) | 36.8 (≈ 78.8 µM) | 17.4 (≈ 37.3 µM) | 
3 | C/C(=N\NC(=O)c1ccc(CSc2nc(C)cc(C)n2)cc1)c1ccc(C)c([N+](=O)[O-])c1 | > 80 | > 80 | > 80 | 
4 | COc1cc(/C=N/NC(=O)CSc2nc3ccccc3s2)cc(OC)c1OC | > 80 | > 80 | > 80 | 
5 | Cc1cc(C)nc(SCc2ccc(C(=O)N/N=C/c3c[nH]c4ccccc34)cc2)n1 | 34.1 (≈ 82.2 µM) | 35.5 (≈ 85.5 µM) | 23.2 (≈ 55.9 µM) | 
6 | C/C(=N\NC(=O)CSc1nc2ccccc2s1)c1ccc([N+](=O)[O-])cc1 | > 80 | 35.7 (≈ 92.4 µM) | 39.7 (≈ 103 µM) | 
7 | COc1cc(/C=N/NC(=O)c2ccc(CSc3nc4ccccc4s3)cc2)cc(OC)c1OC | > 80 | > 80 | > 80 | 
8 | O=C(CSc1nc2ccccc2s1)N/N=C1\C(=O)Nc2ccccc21 | 23.9 (≈ 65 µM) | 17.7 (≈ 48 µM) | 13.1 (≈ 35.6 µM) | inhibition [4]: Active; inhibition [5]: Active; inhibition [6]: Active
9 | O=C1Nc2ccccc2/C1=N/NC(=O)c1ccc(CSc2nc3ccccc3s2)cc1 | 5.71 (≈ 12.8 µM) | 11.9 (≈ 26.7 µM) | 4.58 (≈ 10.3 µM) | Activity [7]: 5.5%; inhibition [4]: Active; inhibition [5]: Active; inhibition [6]: Active; inhibition [1]: Dose-dependent effect; inhibition [8]: Dose-dependent effect; Activity [9]: 89.3%; Activity [10]: 3.7%; Activity [11]: 1.6%; Activity [12]: 77.7%; Activity [13]: 14.5%; Activity [14]: 2.2%; Activity [15]: 5.6%
10 | O=C(CSc1nc2ccccc2s1)N/N=C/c1c[nH]c2ccccc12 | > 80 | > 80 | 32.9 (≈ 89.7 µM) | inhibition at 40 µg/mL [16]: 55%
11 | C/C(=N\NC(=O)c1ccc(CSc2nc(C)cc(C)n2)cc1)c1ccc(F)cc1 | 4.85 (≈ 11.9 µM) | 3.88 (≈ 9.5 µM) | 3.25 (≈ 7.96 µM) | Activity [7]: 10.3%; inhibition [4]: Active; inhibition [5]: Active; inhibition [6]: Active; inhibition [1]: Dose-dependent effect; inhibition [8]: Dose-dependent effect; Activity [9]: 83.8%; Activity [10]: 1.4%; Activity [11]: 4.5%; Activity [12]: 76.3%; Activity [13]: 16.5%; Activity [14]: 2.3%; Activity [15]: 4.9%
12 | C/C(=N\NC(=O)c1ccc(CSc2nc3ccccc3s2)cc1)c1ccc(C)c([N+](=O)[O-])c1 | > 80 | > 80 | > 80 | 
13 | C/C(=N\NC(=O)CSc1nc2ccccc2s1)c1ccc(C)c([N+](=O)[O-])c1 | 33 (≈ 82.3 µM) | 17.8 (≈ 44.5 µM) | 10.1 (≈ 25.1 µM) | inhibition [4]: Active; inhibition [5]: Active; inhibition [6]: Active; inhibition [1]: Dose-dependent effect; inhibition [8]: Dose-dependent effect; inhibition [17]: Dose-dependent effect
14 | O=C(N/N=C/c1c[nH]c2ccccc12)c1ccc(CSc2nc3ccccc3s2)cc1 | > 80 | > 80 | 7.74 (≈ 17.5 µM) | inhibition at 40 µg/mL [16]: 74%
15 | O=c1[nH]cc(F)c(=O)[nH]1 [FLUOROURACIL] | 36 (≈ 277 µM) | 17.4 (≈ 134 µM) | 10.4 (≈ 80 µM) | inhibition [1]: Dose-dependent effect; inhibition [8]: Dose-dependent effect; inhibition [17]: Dose-dependent effect
